# What was measured:
# [1] = molecular target: T1, Nurr1 (Homo sapiens, UniProt P43354); assay: Binding SPR
# Target sequence in this assay (P43354 360-595 limits assumed): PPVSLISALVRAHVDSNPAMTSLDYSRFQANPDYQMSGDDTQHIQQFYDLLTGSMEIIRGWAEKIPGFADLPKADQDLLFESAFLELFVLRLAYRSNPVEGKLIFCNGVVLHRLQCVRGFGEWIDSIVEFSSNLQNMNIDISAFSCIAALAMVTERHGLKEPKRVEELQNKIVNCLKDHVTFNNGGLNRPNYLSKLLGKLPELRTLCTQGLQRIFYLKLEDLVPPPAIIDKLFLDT
# [2] = molecular target: T1, Nurr1; assay: Binding MST
# Target sequence in this assay (P43354 360-595 limits assumed): as above
# [3] = system: Vmat2 in MN9D; assay: cells; format: cell-based; conditions: cpds tested at 10 μM, analogs of compound 87, read-out: qPCR MN9D Vmat2
# [4] = system: TH in SHSY5Y; assay: qPCR SHSY5Y TH; format: cell-based; conditions: Homo sapiens, SH-SY5Y, cpds tested at 10 μM
# [5] = system: Nurr1 in MN9D; assay: qPCR MN9D Nurr1; format: cell-based; conditions: cpds tested at 10 μM, analogs of compound 87
# [6] = molecular target: T1, Nurr1; assay: Luciferase cellular assay; format: cell-based; set-up: expressed in transfected cells; host or cells: SK-N-BE(2)C cells (ATCC CRL-2268); conditions: cpds tested at 10 μM; analogs of compound 87
# Target sequence in this assay (P43354 328-598): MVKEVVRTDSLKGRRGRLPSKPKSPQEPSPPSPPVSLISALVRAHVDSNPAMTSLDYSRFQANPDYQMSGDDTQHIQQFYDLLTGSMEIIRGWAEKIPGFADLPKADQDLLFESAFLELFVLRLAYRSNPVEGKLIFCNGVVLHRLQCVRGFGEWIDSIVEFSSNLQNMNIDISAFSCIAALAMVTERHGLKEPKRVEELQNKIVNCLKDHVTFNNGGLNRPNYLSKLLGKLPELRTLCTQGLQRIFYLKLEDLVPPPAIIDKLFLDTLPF
Binding SPR ([1]; analogs of compound 87),Binding MST ([2]; analogs of compound 87),Compound,other results
+,,"CC(C)(NC(=O)c1cc(Cl)cc(Cl)c1)c1cn(CCC(=O)O)nn1 [GWL 2.129, 3-(4-(2-(3,5-dichlorobenzamido)propan-2-yl)-1H-1,2,3-triazol-1-yl)propanoic acid]",
+,,"CC(C)(NC(=O)c1cc(Cl)cc(Cl)c1)c1cn(CC(=O)O)nn1 [GWL 2.131, 2-(4-(2-(3,5-dichlorobenzamido)propan-2-yl)-1H-1,2,3-triazol-1-yl)acetic acid]",
+,,"CC(C)(NC(=O)c1cc(Cl)cc(Cl)c1)c1cn(CCC(N)=O)nn1 [GWL 2.154, N-(2-(1-(3-amino-3-oxopropyl)-1H-1,2,3-triazol-4-yl)propan-2-yl)-3,5-dichlorobenzamide]",
,,"O=C(COc1ccc(Cl)c(Cl)c1)NCCc1ccc(O)c(O)c1 [SP 60, 2-(3,4-dichlorophenoxy)-N-(3,4-dihydroxyphenethyl)acetamide]",Binding MST ([2]; analogs of compound 85): +; Binding SPR ([1]; analogs of compound 85): +
+,+,"CCn1cc(C(C)(C)NC(=O)c2cc(Cl)cc(Cl)c2)nn1 [SP 65, 3,5-dichloro-N-(2-(1-ethyl-1H-1,2,3-triazol-4-yl)propan-2-yl)benzamide]",
,,"O=C(COc1ccc(Cl)c(Cl)c1)NCc1ccc(O)c(O)c1 [SP 95, 2-(3,4-dichlorophenoxy)-N-(3,4-dihydroxybenzyl)acetamide]",Binding MST ([2]; analogs of compound 85): +; Binding SPR ([1]; analogs of compound 85): +
+,+,"CC(C)(NC(=O)c1cc(Cl)cc(Cl)c1)c1cn(Cc2ccccc2)nn1 [SP 98, N-(2-(1-benzyl-1H-1,2,3-triazol-4-yl)propan-2-yl)-3,5-dichlorobenzamide]",
+,+,"CC(C)(NC(=O)c1cc(Cl)cc(Cl)c1)c1cn(CCc2ccccc2)nn1 [SP 99, 3,5-dichloro-N-(2-(1-phenethyl-1H-1,2,3-triazol-4-yl)propan-2-yl)benzamide]",
+,,"CC(C)(NC(=O)c1cc(Cl)cc(Cl)c1)c1cn(CCc2ccc(Cl)c(Cl)c2)nn1 [SP 100, 3,5-dichloro-N-(2-(1-(3,4-dichlorophenethyl)-1H-1,2,3-triazol-4-yl)propan-2-yl)benzamide]",
+,+,"CC(C)(NCc1cc(Cl)cc(Cl)c1)c1cn(CCc2ccc(Cl)c(Cl)c2)nn1 [SP 136, N-(3,5-dichlorobenzyl)-2-(1-(3,4-dichlorophenethyl)-1H-1,2,3-triazol-4-yl)propan-2-amine]",
+,+,"CC(C)(NC(=O)c1ccccc1)c1cn(CCc2ccc(Cl)c(Cl)c2)nn1 [SP 138, N-(2-(1-(3,4-dichlorophenethyl)-1H-1,2,3-triazol-4-yl)propan-2-yl)benzamide]",
,,"CC(C)(NC(=O)c1ccc(Cl)c(Cl)c1)c1cn(CCc2ccc(Cl)c(Cl)c2)nn1 [SP 146, 3,4-dichloro-N-(2-(1-(3,4-dichlorophenethyl)-1H-1,2,3-triazol-4-yl)propan-2-yl)benzamide]",Binding SPR ([1]; analogs of compound 85): +
+,,"CC(C)(NC(=O)c1cc(Cl)cc(Cl)c1)c1cn(CCc2ccc(Br)cc2)nn1 [SP 147, N-(2-(1-(4-bromophenethyl)-1H-1,2,3-triazol-4-yl)propan-2-yl)-3,5-dichlorobenzamide]",
,,"CC(=O)SCCn1cc(C(C)(C)NC(=O)c2cc(Cl)cc(Cl)c2)nn1 [SP 151, S-2-(4-(2-(3,5-dichlorobenzamido)propan-2-yl)-1H-1,2,3-triazol-1-yl)ethyl ethanethioate]",fold induction at 10 µM [3]: > 1.5
+,+,"CC(C)(NC(=O)c1cc(Cl)cc(Cl)c1)c1cnn(CCN)c1 [SP 155, N-(2-(1-(2-aminoethyl)-1H-pyrazol-4-yl)propan-2-yl)-3,5-dichlorobenzamide]",
++,++,"CC(C)(NC(=O)c1cc(Br)cc(Br)c1)c1cn(CCS)nn1 [SP 156, 3,5-dibromo-N-(2-(1-(2-mercaptoethyl)-1H-1,2,3-triazol-4-yl)propan-2-yl)benzamide]",fold induction at 10 µM [4]: > 4; Luciferase [6]: +++ (+++ =>4−fold)
+,++,"CC(C)(NC(=O)c1cc(F)cc(F)c1)c1cn(CCS)nn1 [SP 158, 3,5-difluoro-N-(2-(1-(2-mercaptoethyl)-1H-1,2,3-triazol-4-yl)propan-2-yl)benzamide]",
,++,"C=CC(=O)n1cc(C(C)(C)NC(=O)c2cc(Cl)cc(Cl)c2)cn1 [SP 162, N-(2-(1-acryloyl-1H-pyrazol-4-yl)propan-2-yl)-3,5-dichlorobenzamide]",
,,"CC(C)C(=O)SCCn1cc(C(C)(C)NC(=O)c2cc(Cl)cc(Cl)c2)nn1 [SP 163, S-2-(4-(2-(3,5-dichlorobenzamido)propan-2-yl)-1H-1,2,3-triazol-1-yl)ethyl 2-methylpropanethioate]",fold induction at 10 µM [4]: > 1.5; fold induction at 10 µM [3]: > 4
,,"CC(=O)SCCn1cc(C(C)(C)NC(=O)c2cc(Br)cc(Br)c2)nn1 [SP 173, S-2-(4-(2-(3,5-dibromobenzamido)propan-2-yl)-1H-1,2,3-triazol-1-yl)ethyl ethanethioate]",fold induction at 10 µM [4]: > 1.5; Luciferase [6]: +++ (+++ =>4−fold)
,+,"COc1ccc(Cn2cc(C(C)(C)NC(=O)c3cc(Cl)cc(Cl)c3)nn2)cc1 [SP 178, 3,5-dichloro-N-(2-(1-(4-methoxybenzyl)-1H-1,2,3-triazol-4-yl)propan-2-yl)benzamide]",
,,"CC(=O)SCCn1cc(C(C)(C)NC(=O)c2cc(Cl)cc(Cl)c2)cn1 [SP 184, S-2-(4-(2-(3,5-dichlorobenzamido)propan-2-yl)-1H-pyrazol-1-yl)ethyl ethanethioate]",fold induction at 10 µM [5]: > 4; fold induction at 10 µM [3]: > 1.5
,,"CC(=O)SCCn1cc(C(C)(C)NC(=O)c2cc(Cl)cc(N3CCN(C)CC3)c2)nn1 [SP 186, S-2-(4-(2-(3-chloro-5-(4-methylpiperazin-1-yl)benzamido)propan-2-yl)-1H-1,2,3-triazol-1-yl)ethyl ethanethioate]",Luciferase [6]: ++ (++ => 1.5-fold); fold induction at 10 µM [3]: > 1.5
,,"COc1cc(OC)cc(C(=O)NC(C)(C)c2cn(CCSC(C)=O)nn2)c1 [SP 193, S-2-(4-(2-(3,5-dimethoxybenzamido)propan-2-yl)-1H-1,2,3-triazol-1-yl)ethyl ethanethioate]",fold induction at 10 µM [3]: > 1.5
,,"CC(=O)SCCn1cc(C(C)(C)NC(=O)c2cnc3ccccc3c2)nn1 [SP 194, S-2-(4-(2-(quinoline-3-carboxamido)propan-2-yl)-1H-1,2,3-triazol-1-yl)ethyl ethanethioate]",fold induction at 10 µM [5]: > 4; fold induction at 10 µM [3]: > 1.5
,,"C=CC(=O)NNC(=O)COc1ccc(Cl)c(Cl)c1 [UNI6-001, N′-(2-(3,4-dichlorophenoxy)acetyl)acrylohydrazide]",Binding MST ([2]; analogs of compound 85): +
,,"C=CS(=O)(=O)NNC(=O)COc1ccc(Cl)c(Cl)c1 [UNI6-003, N′-(2-(3,4-dichlorophenoxy)acetyl)ethenesulfonohydrazide]",Binding MST ([2]; analogs of compound 85): +

Compound,Binding SPR ([1]; analogs of compound 87),Binding MST ([2]; analogs of compound 87),other results
"CC(C)(NC(=O)c1cc(Cl)cc(Cl)c1)c1cn(-c2ccoc2)nn1 [GWL 3.001, 3,5-dichloro-N-(2-(1-(furan-3-yl)-1H-1,2,3-triazol-4-yl)propan-2-yl)benzamide]",+,,
"CC(C)(NC(=O)c1cc(Cl)cc(Cl)c1)c1cn(CC(N)=O)nn1 [GWL 3.008, N-(2-(1-(2-amino-2-oxoethyl)-1H-1,2,3-triazol-4-yl)propan-2-yl)-3,5-dichlorobenzamide]",+,+,
"CC(C)(NC(=O)c1cc(Cl)cc(Cl)c1)c1cnn(CCS)c1 [SP 153, 3,5-dichloro-N-(2-(1-(2-mercaptoethyl)-1H-pyrazol-4-yl)propan-2-yl)benzamide]",+++,+++,fold induction at 10 µM [4]: > 4; fold induction at 10 µM [5]: > 4; fold induction at 10 µM [3]: > 1.5
"CC(C)(NC(=O)c1ccc(Cl)c(Cl)c1)c1cn(CCS)nn1 [SP 157, 3,4-dichloro-N-(2-(1-(2-mercaptoethyl)-1H-1,2,3-triazol-4-yl)propan-2-yl)benzamide]",+,+++,Luciferase [6]: +++ (+++ =>4−fold); fold induction at 10 µM [3]: > 4
"CC(C)(NC(=O)c1cc(Cl)cc(Cl)c1)c1cn(CCSC(=O)c2ccccc2)nn1 [SP 164, S-2-(4-(2-(3,5-dichlorobenzamido)propan-2-yl)-1H-1,2,3-triazol-1-yl)ethyl benzothioate]",+,,fold induction at 10 µM [3]: > 4
"CC(C)(NC(=O)c1cc(Cl)cc(Cl)c1)c1cnn(COCC[Si](C)(C)C)c1 [SP 174, 3,5-dichloro-N-(2-(1-((2-(trimethylsilyl)ethoxy)methyl)-1H-pyrazol-4-yl)propan-2-yl)benzamide]",+,,fold induction at 10 µM [5]: > 4
CSSCCn1cc(C(C)(C)NC(=O)c2cc(Cl)cc(NC(C)=O)c2)nn1 [SP 183],+,+,
"COc1cc(OC)cc(C(=O)NC(C)(C)c2cn(CCS)nn2)c1 [SP 191, N-(2-(1-(2-mercaptoethyl)-1H-1,2,3-triazol-4-yl)propan-2-yl)-3,5-dimethoxybenzamide]",+,++,fold induction at 10 µM [5]: > 4; fold induction at 10 µM [3]: > 1.5

# From US20230063230A1, “NURR1 RECEPTOR MODULATORS” (priority 2019, published 2023)
